Assay results from US10072003B2, “Tetrahydronaphthyridine derivatives as mGluR2-negative allosteric modulators, compositions, and their use” (Merck Sharp & Dohme Corp., priority 2014, dated 2018).

Target: recombinant human mGluR2 (Homo sapiens (Human), UniProt Q14416)
Experiment: FLIPR Ca2+ mobilization antagonist assay in CHO dhfr- cells expressing human mGluR2 and Gα16
Type: cell-based
Details: antagonist response after addition of 2,500 nM glutamate, Fluo-4 AM, FLIPR384
Summary of the method: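 CHO dhfr- cells stably co-expressing human mGluR2 and Gα16, Fluo-4 AM loaded, preincubated with compound, then challenged with 2,500 nM glutamate; Ca2+ response read by FLIPR. Maximum calcium response vs concentration fitted to four-parameter logistic for IC50.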

recombinant human mGluR2, sequence (Q14416 19-872): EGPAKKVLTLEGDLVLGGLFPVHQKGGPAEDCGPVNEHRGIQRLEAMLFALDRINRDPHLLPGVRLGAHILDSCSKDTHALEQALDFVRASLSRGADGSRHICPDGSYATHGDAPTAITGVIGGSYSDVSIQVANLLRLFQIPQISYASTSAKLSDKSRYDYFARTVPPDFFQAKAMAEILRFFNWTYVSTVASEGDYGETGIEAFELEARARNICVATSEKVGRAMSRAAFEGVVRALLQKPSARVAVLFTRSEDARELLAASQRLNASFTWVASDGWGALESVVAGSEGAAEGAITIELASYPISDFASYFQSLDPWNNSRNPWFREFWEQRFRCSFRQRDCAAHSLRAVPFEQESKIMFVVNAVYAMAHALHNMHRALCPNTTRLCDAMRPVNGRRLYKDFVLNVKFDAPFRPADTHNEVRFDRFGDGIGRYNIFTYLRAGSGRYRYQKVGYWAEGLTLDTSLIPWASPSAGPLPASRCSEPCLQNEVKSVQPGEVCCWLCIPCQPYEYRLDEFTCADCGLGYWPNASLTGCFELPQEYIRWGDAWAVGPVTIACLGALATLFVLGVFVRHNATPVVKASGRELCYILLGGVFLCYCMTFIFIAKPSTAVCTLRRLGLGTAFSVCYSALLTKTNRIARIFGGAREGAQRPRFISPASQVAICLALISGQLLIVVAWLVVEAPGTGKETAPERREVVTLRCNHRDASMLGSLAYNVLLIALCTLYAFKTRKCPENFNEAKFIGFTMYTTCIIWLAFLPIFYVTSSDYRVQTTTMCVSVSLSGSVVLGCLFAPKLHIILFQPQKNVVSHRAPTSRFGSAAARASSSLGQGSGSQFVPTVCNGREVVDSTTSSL

| IC50 | SMILES |
| --- | --- |
| 7.8 nM | COc1cc(CN2CCc3c(-c4ccc(F)cc4F)cc(C(N)=O)nc3C2)ccn1 [Example 13-1, 4-(2,4-difluorophenyl)-7-((2-methoxypyridin-4-yl)methyl)-5,6,7,8-tetrahydro-1,7-naphthyridine-2-carboxamide] |
| 6.6 nM | COc1ccc(-c2cc(C(N)=O)nc3c2CCN(Cc2ccnc(OC)c2)C3)c(F)c1 [Example 13-2, 4-(2-fluoro-4-methoxyphenyl)-7-[(2-methoxypyridin-4-yl)methyl]-5,6,7,8-tetrahydro-1,7-naphthyridine-2-carboxamide] |
| 16 nM | COc1cc(CN2CCc3c(-c4ccc(Cl)cc4F)cc(C(N)=O)nc3C2)ccn1 [Example 13-3, 4-(4-chloro-2-fluorophenyl)-7-[(2-methoxypyridin-4-yl)methyl]-5,6,7,8-tetrahydro-1,7-naphthyridine-2-carboxamide] |
| 5.7 nM | COc1cc(CN2CCc3c(-c4ccc(F)cc4Cl)cc(C(N)=O)nc3C2)ccn1 [Example 13-4, 4-(2-chloro-4-fluorophenyl)-7-[(2-methoxypyridin-4-yl)methyl]-5,6,7,8-tetrahydro-1,7-naphthyridine-2-carboxamide] |

The next lines start with the compound.

| SMILES | IC50 |
| --- | --- |
| NC(=O)c1cc(-c2c(F)cc(F)cc2F)c2c(n1)CN(Cc1ccnc(C(F)(F)F)n1)CC2 [Example 11-6, 7-{[2-(trifluoromethyl)pyrimidin-4-yl]methyl}-4-(2,4,6-trifluorophenyl)-5,6,7,8-tetrahydro-1,7-naphthyridine-2-carboxamide] | 13.2 nM |
| NC(=O)c1cc(-c2c(F)cccc2Cl)c2c(n1)CN(Cc1ccnc(C(F)(F)F)n1)CC2 [Example 11-7, 4-(2-chloro-6-fluorophenyl)-7-{[2-(trifluoromethyl)pyrimidin-4-yl]methyl}-5,6,7,8-tetrahydro-1,7-naphthyridine-2-carboxamide] | 45.2 nM |
| NC(=O)c1cc(-c2ccccc2F)c2c(n1)CN(Cc1ccnc(C(F)(F)F)n1)CC2 [Example 11-8, 4-(2-fluorophenyl)-7-{[2-(trifluoromethyl)pyrimidin-4-yl]methyl}-5,6,7,8-tetrahydro-1,7-naphthyridine-2-carboxamide] | 11.8 nM |
| NC(=O)c1cc(-c2c(F)cc(Cl)cc2F)c2c(n1)CN(Cc1ccnc(C(F)(F)F)n1)CC2 [Example 11-9, 4-(4-chloro-2,6-difluorophenyl)-7-{[2-(trifluoromethyl)pyrimidin-4-yl]methyl}-5,6,7,8-tetrahydro-1,7-naphthyridine-2-carboxamide] | 6.5 nM |
| NC(=O)c1cc(-c2ccc(F)cc2)c2c(n1)CN(Cc1cc(C(F)(F)F)ncn1)CC2 [Example 11-10, 4-(4-fluorophenyl)-7-{[6-(trifluoromethyl)pyrimidin-4-yl]methyl}-5,6,7,8-tetrahydro-1,7-naphthyridine-2-carboxamide] | 7.6 nM |
| NC(=O)c1cc(-c2c(F)cc(F)cc2F)c2c(n1)CN(Cc1cc(C(F)(F)F)ncn1)CC2 [Example 11-11, 7-{[6-(trifluoromethyl)pyrimidin-4-yl]methyl}-4-(2,4,6-trifluorophenyl)-5,6,7,8-tetrahydro-1,7-naphthyridine-2-carboxamide] | 26.1 nM |
| NC(=O)c1cc(-c2ccc(Cl)cc2F)c2c(n1)CN(Cc1cc(C(F)(F)F)ncn1)CC2 [Example 11-12, 4-(4-chloro-2-fluorophenyl)-7-{[6-(trifluoromethyl)pyrimidin-4-yl]methyl}-5,6,7,8-tetrahydro-1,7-naphthyridine-2-carboxamide] | 10 nM |
| NC(=O)c1cc(N2CCC(F)(F)CC2)c2c(n1)CN(Cc1ccnc(C(F)(F)F)n1)CC2 [Example 12-1, 4-(4,4-difluoropiperidin-1-yl)-7-((2-(trifluoromethyl)pyrimidin-4-yl)methyl)-5,6,7,8-tetrahydro-1,7-naphthyridine-2-carboxamide] | 40.9 nM |
| NC(=O)c1cc(N2CCC3(CC2)CC3)c2c(n1)CN(Cc1ccnc(C(F)(F)F)n1)CC2 [Example 12-2, 4-(6-azaspiro[2.5]oct-6-yl)-7-{[2-(trifluoromethyl)pyrimidin-4-yl]methyl}-5,6,7,8-tetrahydro-1,7-naphthyridine-2-carboxamide] | 13.1 nM |
| NC(=O)c1cc(-n2cc(Cl)cn2)c2c(n1)CN(Cc1ccnc(C(F)(F)F)n1)CC2 [Example 12-3, 4-(4-chloro-1H-pyrazol-1-yl)-7-{[2-(trifluoromethyl)pyrimidin-4-yl]methyl}-5,6,7,8-tetrahydro-1,7-naphthyridine-2-carboxamide] | 93.2 nM |
| NC(=O)c1cc(N2CCC(F)(F)CC2)c2c(n1)CN(Cc1cc(C(F)(F)F)ncn1)CC2 [Example 12-4, 4-(4,4-difluoropiperidin-1-yl)-7-{[6-(trifluoromethyl)pyrimidin-4-yl]methyl}-5,6,7,8-tetrahydro-1,7-naphthyridine-2-carboxamide] | 35.9 nM |
| NC(=O)c1cc(N2CCC3(CC2)CC3)c2c(n1)CN(Cc1cc(C(F)(F)F)ncn1)CC2 [Example 12-5, 4-(6-azaspiro[2.5]oct-6-yl)-7-{[6-(trifluoromethyl)pyrimidin-4-yl]methyl}-5,6,7,8-tetrahydro-1,7-naphthyridine-2-carboxamide] | 20.4 nM |
